Assay results published in patent publication US6897238B2, “Topical aminolevulinic acid-photodynamic therapy for the treatment of acne vulgaris” (General Hospital Corporation, priority 2000, dated 2005).

Assays:
pilosebaceous units = experiment: ALA-induced PpIX fluorescence in skin (fluorescence microscopy / photography); assay type: in vivo, human
Procedure: Punch biopsy specimens (4 mm) were taken immediately after PDT, a few weeks after PDT, and at 20 weeks from both the untreated control and ALA-PDT areas. […] Histologic examination was performed. […] To determine the level of PpIX converted from ALA in the pilosebaceous units, punch biopsy specimens were also taken from ALA-treated areas after 3 h occlusion as described above.

sebaceous glands [1] = experiment: Histologic examination and planimetry of punch biopsies; details: for Reduction of cytoplasm/nuclear cross-section area ratio in sebocyte relative to non-treatment: 3 weeks
acne vulgaris [2] = experiment: Inflammatory acne score, open-label human study of topical ALA-PDT on the back
sebaceous glands [3] = experiment: Sebum excretion rate (SER) by Sebutape; details: ALA plus red light
acne vulgaris [4] = experiment: Global clinical-improvement grading by blinded dermatologists from photographs; assay type: in vivo, human
Procedure: (§1) Sites were marked withtemplates to precisely relocate each test area. […] Then, 20% topical ALA in a hydroalcoholic vehicle (Levulan, a gift from DUSA pharmaceutical) was applied for 3h under occlusion with plastic film (Saran wrap), and 150 J/cm^2 broad band light (550-700 nm) was given to the ALA-PDT and light alone areas. […] In both groups, subjects returned one week after treatments for clinical evaluations and at weeks 2, 3, 10 and 20 for clinical, fluorescence, and SER evaluations.
Clinical improvement was globally assessed by 3 dermatologists unaware of the status of treatment, who blindly graded changes in acne from fixed-magnification clinical photographs, after being shown a small set standardized series of training slides not used in the data evaluation. The grading scale was defined as −3 for >50% exacerbation, −2 for 25^+−50% exacerbation, −1 for 1^+−25% exacerbation, 0 if unchanged, 1 for 1^+−25% improvement, 2 for 25^+−50% improvement, 3 for 50^+−75% improvement, 4 for 75^+−99% improvement, and 5 for 100% improvement, as compared to the baseline.
(§2) Statistical significance was defined as p value of less than 0.05.

P. acnes = experiment: Fluorescence photography of follicular bacterial porphyrin (red fluorescent dots); assay type: in vivo, human
Procedure: as §1
A Nikon E2N digital camera body with a Nikon 105 mm macro lens was used. A filter (Corion LL-550S) was placed on the lens to block light below 550 nm. The excitation light source was composed of two synchronized photoflashes with Norman 400 watt-second lampheads (FT400/FT6), mounted on a stationary tower with angles of incidence of 60 degrees bilaterally. Two 400 nm bandpass filters with 5 nm bandwidth (Corion S40-400S) were placed on the flashes. By this method, the punctate orange-red fluorescence of hair follicles populated with P. acnes was seen. Fluorescence emission has been attributed to bacterial coproporphyrin III and protoporphyrin IX, and intensity of fluorescence is related to the P. acnes population. Fluorescence photography was performed at week, 0, 2, 3, 10 and 20 in all sites. The number of punctate red flourescent dots was counted blindly for each test area.
as §2

[5] = Adverse effects, clinical evaluation and subjective sensation; assay type: in vivo, human; details: for Subjects with burning sensation / Subjects with itching: multiple ALA-PDT
Procedure: Adverse effects were scored by clinical evaluation of erythema, edema, loss of epidermis, hyperpigmentation, hemorrhage, vesiculation, and exfoliation on a visual-analogue scale from 0 to 3 (0=absent, 1=mild, 2=moderate, 3=severe) for each finding. Subjective sensation of pain, burning, and itching was generally maximum about 10 minutes into light exposure, and was ranked at that time and the end of treatment (1 hour), by subjects on a scale from 0 to 3 similar to above.

[6] = multiple treatment group, 20 weeks after the last treatment
[7] = twenty weeks after a single ALA-PDT treatment
[8] = single treatment, ALA plus red light
[9] = multiple treatments, ALA plus red light
[10] = multiple-treatment subjects, after 4 treatments
[11] = single-treatment subjects, at 20 weeks

In the case of NCC(=O)CCC(=O)O [ALA, 5-aminolevulinic acid], the “Porphyrin fluorescence of fresh-frozen sections compared with untreated skin” value (pilosebaceous units; after ALA application, 3 h occlusion, fluorescence microscopy) is reported as “bright porphyrin fluorescence in epidermis and pilosebaceous units”, the “PpIX fluorescence, sebocytes versus follicular epithelial cells” value (pilosebaceous units; after ALA application, fluorescence microscopy) is reported as “brighter PpIX fluorescence in sebocytes than in the adjacent follicular epithelial cells” and the “ALA-induced PpIX fluorescence, acne lesions versus surrounding tissue” value (pilosebaceous units; fluorescence photography) is reported as “greater in acne lesions than surrounding tissue”. The “Reduction of sebaceous gland size compared with untreated control area” value (sebaceous glands [1]; 3 weeks after multiple ALA-PDT) was 55%, the “Reduction of sebaceous gland size compared with untreated control area” value (sebaceous glands [1]; 3 weeks after single ALA-PDT) was 30% and the “Histologic finding in sebaceous gland lobules” value (sebaceous glands [1]; 20 weeks after multiple ALA-PDT treatments) was “complete destruction or 25 marked atrophy of sebaceous gland lobules”. For the same molecule, the “Reduction of sebaceous gland size, mean decrease” value (sebaceous glands [1]; immediately after PDT) was 40%, the “Reduction of cytoplasm/nuclear cross-section area ratio in sebocyte relative to non-treatment” value (sebaceous glands [1]; multiple PDT) was 56% and the “Reduction of sebaceous gland size” value (sebaceous glands [1]; [6]) was 45%. The “Reduction of sebaceous gland size, range” value (sebaceous glands [1]; [6]) was 15-80%, the “Reduction of sebocyte cytoplasm/nuclear area” value (sebaceous glands [1]; [6]) was 46% and the “Reduction of sebocyte cytoplasm/nuclear area, range” value (sebaceous glands [1]; [6]) was 39-53%. For the same molecule, the “Reduction of cytoplasm/nuclear cross-section area ratio in sebocyte relative to non-treatment” value (sebaceous glands [1]; single PDT) was 38%, the “Reduction of sebaceous gland size, mean decrease” value (sebaceous glands [1]; [7]) was 17% and the “Sebocyte cytoplasm/nuclear area ratio” value (sebaceous glands [1]; [7]) was “not reduced”. For the same molecule, the “Inflammatory acne score, multiple versus single treatment group, all follow-up visits combined” value (acne vulgaris [2]; ALA alone, P=0.007) was “better improvement than the single treatment group”, the “Inflammatory acne score, multiple versus single treatment group” value (acne vulgaris [2]; ALA plus red light, first 3 follow-up visits) was “significantly better improvement than the single ALA-PDT treatment group” and the “Inflammatory acne score, multiple versus single treatment group, all follow-up visits combined” value (acne vulgaris [2]; ALA plus red light, p<0.001) was “better improvement than the single treatment group”. The “Duration of clinical and statistically significant clearance of inflammatory acne” value (acne vulgaris [2]; after a single treatment) was no less than 10 weeks, the “Duration of clinical and statistically significant clearance of inflammatory acne” value (acne vulgaris [2]; after multiple ALA-PDT treatments) was “at least 20 weeks” and the “Inflammatory acne score, change from baseline” value (acne vulgaris [2]; multiple (4 weekly) treatments, ALA plus red light) was “obvious and statistically significant improvement in acne at all follow-up visits”. The “Inflammatory acne score, change from baseline” value (acne vulgaris [2]; multiple treatments, ALA alone, no light) was “no improvement”, the “Inflammatory acne score, change from baseline versus the other three sites” value (acne vulgaris [2]; multiple treatments, ALA plus red light, all visits, p<0.05) was “significantly greater” and the “Inflammatory acne score, ALA alone versus untreated area” value (acne vulgaris [2]; multiple treatments, visit 2 (week 2) only, p=0.046) was “barely-significant improvement”. The “Inflammatory acne score, change from baseline” value (acne vulgaris [2]; single treatment, 20% topical ALA 3 h occlusion + 150 J/cm^2 red light) was “improvement in acne, which was statistically significant starting 3 weeks after treatment”, the “Inflammatory acne score, change from baseline” value (acne vulgaris [2]; single treatment, ALA alone, no light, all visits) was “slightly worse acne not significantly different than baseline” and the “Inflammatory acne score, change from baseline versus the other three areas” value (acne vulgaris [2]; [8]) was “the differences were statistically significant at 3, 10, 20 weeks”. The “Sebum excretion after PDT (summary)” value (sebaceous glands [3]) was “eliminated for several weeks, and decreased for 20 weeks”, the “SER, multiple versus single treatment group” value (sebaceous glands [3]; difference significant only at 20 weeks, all visits combined p=0.001) was “suppressed SER more than single ALA-PDT” and the “SER, difference to the other 3 areas” value (sebaceous glands [3]; multiple treatments) was “statistically significant at all 4 visits”. For the same molecule, the “Sebum excretion rate (SER) versus baseline” value (sebaceous glands [3]; multiple treatments) was “significant decrease in SER, at all follow-up visits”, the “SER versus the other test sites” value (sebaceous glands [3]; single treatment) was “significantly lower than any other test sites, at each follow-up visit” and the “Sebum excretion rate (SER) versus baseline” value (sebaceous glands [3]; single treatment, weeks 2, 3, 20) was “significant decrease of SER”. For the same molecule, the “Global clinical-improvement score, multiple versus single treatment group” value (acne vulgaris [4]; ALA plus red light, first 2 follow-up visits (week 1 & 2)) was “significantly better improvement than the single ALA-PDT treatment group”, the “Duration of obvious and significant improvement of acne, blinded clinical assessment” value (acne vulgaris [4]; after 4 treatments) was “at least 20 weeks” and the “Duration of obvious and significant improvement of acne, blinded clinical assessment” value (acne vulgaris [4]; after a single ALA-PDT treatment) was “at least 10 weeks”. The “Global clinical-improvement score versus baseline” value (acne vulgaris [4]; multiple treatments, ALA alone, visit 2 and visit 5) was “improvement reaching statistical significance”, the “Global clinical-improvement score versus baseline” value (acne vulgaris [4]; [9]) was “Significant improvement” and the “Global clinical-improvement score versus the other 3 sites” value (acne vulgaris [4]; [9]) was “significantly better improvement in the ALA-PDT treated site than the other 3 sites, at all follow-up visits”. The “Global clinical-improvement score versus baseline” value (acne vulgaris [4]; [8]) was “significant global improvement starting week 3 and extending through week 20”, the “Global clinical-improvement score, difference to the other three treatment sites” value (acne vulgaris [4]; [8]) was “statistically significant at weeks 3 and 10” and the “Fluorescence related to P. acnes, multiple versus single treatment group” value (P. acnes; ALA plus red light, four times versus single) was “better, but not significant, improvement”. The “Duration of significant decrease of fluorescence of endogenous porphyrins associated with P. acnes” value (P. acnes; after both single and multiple ALA-PDT) was “at least 20 weeks”, the “Fluorescence related to P. acnes versus baseline” value (P. acnes; multiple treatments, ALA alone, week 10 and 20) was “significantly greater fluorescence than baseline” and the “Fluorescence related to P. acnes versus baseline” value (P. acnes; [9]) was “significant loss of P. acnes, fluorescence, starting at follow-up visit 2”. For the same molecule, the “Fluorescence related to P. acnes, difference to the other 3 test sites” value (P. acnes; [9]) was “statistically significant for all visits”, the “Fluorescence related to P. acnes versus baseline” value (P. acnes; [8]) was “significant loss of fluorescence related to P. acnes, which lasted for all 4 follow-up visits” and the “Fluorescence related to P. acnes, difference to the other 3 test sites” value (P. acnes; [8]) was “statistically significant for all visits”. For the same molecule, the “Patients with acute eruption of inflammatory acneiform lesions” value ([5]; ALA-PDT sites only, both groups) was 100%, the “Exfoliation after 3 weeks post treatment” value ([5]; all subjects) was “None of the subjects had exfoliation” and the Scarring ([5]; all subjects, both groups) was “no site in any subject had any scarring”. The “Erythema and edema, time course” value ([5]; both groups, 1 hour after treatment) was “substantial decrease in erythema and edema by 1 hour after treatment”, the “Subjects with burning sensation” value ([5]; treatment 1) was 9% and the Subjects with itching ([5]; treatment 1) was 73%. For the same molecule, the “Subjects with burning sensation” value ([5]; treatment 2) was 67%, the Subjects with itching ([5]; treatment 2) was 73% and the “Subjects with burning sensation” value ([5]; treatment 3) was 67%. For the same molecule, the Subjects with itching ([5]; treatment 3) was 55%, the “Subjects with burning sensation” value ([5]; treatment 4) was 73% and the Subjects with itching ([5]; treatment 4) was 55%. The “Subjects still showing some degree of pigmentation” value ([5]; multiple PDT, 20 weeks after treatment) was 55%, the “Patients who could not continue the weekly treatment scheme and had to postpone their next treatment” value ([5]; multiple treatment group) was “Six” and the “Acneiform lesions induced by subsequent treatments” value ([5]; multiple-treatment group) was “almost no new acneiform lesions were observed after treatment 4”. The “Duration of transient purpura, average” value [5, 10] was 1 week, the “Subjects with superficial but very prominent exfoliation, transient purpura and partial loss of epidermis” value [5, 10] was 10% and the Main subjective discomfort ([5]; single ALA-PDT group) was “itching was the main discomfort in the single ALA-PDT group, and pain was the least”. The “Subjects in whom erythema faded away completely” value [5, 11] was 82% and the “Subjects in whom hyperpigmentation faded away completely” value [5, 11] was 91%.
